We go through 7 cell lines from the supplement of paper PMC10307832.

Holding throughout (experiment): relative viability (nuclei count vs DMSO), 5 days (fraction); higher = more cells survive
Compound in the assay “XMD8-85 + Linsitinib”: CN1CCN(CC1)C2=CC(=C(C=C2)NC3=NC=C4C(=N3)N(C5=CC=CC=C5C(=O)N4C)C)OC [XMD8-85] + C[C@]1(O)C[C@@H](c2nc(-c3ccc4ccc(-c5ccccc5)nc4c3)c3c(N)nccn32)C1 [Linsitinib] (partner 1 µM)
An outline of the steps:
(§1)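 After 5 days of treatment, lung cancer cells in 1536-well plates were fixed and stained in a single step (final 0.05% Triton X-100, 1% formaldehyde, 1 ug/ml Hoechst) and their nuclei counted on 4× images. Treatment had been applied by pin tool the day after seeding as one drug alone or as a fixed anchor-drug dose with five library-drug doses (not always all listed) in √10 steps. Relative viability is the nuclei count of treated wells divided by that of vehicle wells, and values are medians of duplicate plates.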

Compound in the assay “XMD8-85 + OSI-027”: CN1CCN(CC1)C2=CC(=C(C=C2)NC3=NC=C4C(=N3)N(C5=CC=CC=C5C(=O)N4C)C)OC [XMD8-85] + COc1cccc2cc(-c3nc([C@H]4CC[C@H](C(=O)O)CC4)n4ncnc(N)c34)[nH]c12 [OSI-027] (partner 0.5 µM)
The procedure, abridged:
as §1

Compound in the assay “XMD8-85 + Tozasertib”: CN1CCN(CC1)C2=CC(=C(C=C2)NC3=NC=C4C(=N3)N(C5=CC=CC=C5C(=O)N4C)C)OC [XMD8-85] + Cc1cc(Nc2cc(N3CCN(C)CC3)nc(Sc3ccc(NC(=O)C4CC4)cc3)n2)n[nH]1 [Tozasertib] (partner 0.1 µM)
An outline of the steps: as §1

Compound in the assay “XMD8-85 + Pictilisib”: CN1CCN(CC1)C2=CC(=C(C=C2)NC3=NC=C4C(=N3)N(C5=CC=CC=C5C(=O)N4C)C)OC [XMD8-85] + CS(=O)(=O)N1CCN(Cc2cc3nc(-c4cccc5[nH]ncc45)nc(N4CCOCC4)c3s2)CC1 [Pictilisib] (partner 1 µM)
The procedure, abridged:
as §1

Turning to HCC-827, the relative viability with XMD8-85 + Linsitinib (first compound 0.08 µM) is 0.934; with XMD8-85 + Linsitinib (first compound 0.253 µM) it was 0.975; with XMD8-85 + Linsitinib (first compound 0.8 µM), 1.02; in the assay with XMD8-85 + Linsitinib (first compound 2.53 µM), 0.97; with XMD8-85 + Linsitinib (first compound 8 µM), 0.974; in the assay with XMD8-85 + OSI-027 (first compound 0.08 µM), 0.831. For the same cell line, the relative viability with XMD8-85 + OSI-027 (first compound 0.253 µM) stood at 0.789; with XMD8-85 + OSI-027 (first compound 0.8 µM), 0.714; with XMD8-85 + OSI-027 (first compound 2.53 µM), 0.939; with XMD8-85 + OSI-027 (first compound 8 µM) it was 1; with XMD8-85 + Tozasertib (first compound 0.253 µM), 0.437; in the assay with XMD8-85 + Tozasertib (first compound 0.8 µM), 0.642. Besides, the relative viability in the assay with XMD8-85 + Tozasertib (first compound 2.53 µM) was determined as 0.387; with XMD8-85 + Tozasertib (first compound 8 µM) it was 0.365; in the assay with XMD8-85 + Pictilisib (first compound 0.08 µM), 1.16; with XMD8-85 + Pictilisib (first compound 0.253 µM) it was 1.03; in the assay with XMD8-85 + Pictilisib (first compound 0.8 µM), 0.902; in the assay with XMD8-85 + Pictilisib (first compound 2.53 µM), 1.11. In addition, the relative viability with XMD8-85 + Pictilisib (first compound 8 µM) was found to be 1.15.

Consider ABC-1, for which the relative viability with XMD8-85 + Linsitinib (first compound 0.08 µM) came out at 0.825; in the assay with XMD8-85 + Linsitinib (first compound 0.253 µM), 0.777; with XMD8-85 + Linsitinib (first compound 0.8 µM) it was 0.755; with XMD8-85 + Linsitinib (first compound 2.53 µM), 0.681; with XMD8-85 + Linsitinib (first compound 8 µM) it was 0.406; with XMD8-85 + OSI-027 (first compound 0.08 µM), 0.473. Further, the relative viability with XMD8-85 + OSI-027 (first compound 0.253 µM) stood at 0.296; with XMD8-85 + OSI-027 (first compound 0.8 µM) it was 0.546; in the assay with XMD8-85 + OSI-027 (first compound 2.53 µM), 0.526; in the assay with XMD8-85 + OSI-027 (first compound 8 µM), 0.41; with XMD8-85 + Tozasertib (first compound 0.08 µM), 0.142; with XMD8-85 + Tozasertib (first compound 0.253 µM) it was 0.159. The relative viability came to 0.19 with XMD8-85 + Tozasertib (first compound 0.8 µM); 0.15 with XMD8-85 + Tozasertib (first compound 2.53 µM); 0.231 with XMD8-85 + Tozasertib (first compound 8 µM); 0.628 with XMD8-85 + Pictilisib (first compound 0.08 µM); 0.614 in the assay with XMD8-85 + Pictilisib (first compound 0.253 µM); 0.942 in the assay with XMD8-85 + Pictilisib (first compound 0.8 µM). The relative viability in the assay with XMD8-85 + Pictilisib (first compound 2.53 µM) came out at 0.746.

Take NCI-H358: the relative viability is 0.756 with XMD8-85 + Linsitinib (first compound 0.08 µM); 0.832 with XMD8-85 + Linsitinib (first compound 0.253 µM); 0.643 with XMD8-85 + Linsitinib (first compound 2.53 µM); 0.442 with XMD8-85 + Linsitinib (first compound 8 µM); 0.859 in the assay with XMD8-85 + OSI-027 (first compound 0.08 µM); 0.848 with XMD8-85 + OSI-027 (first compound 0.253 µM). The relative viability is 0.887 in the assay with XMD8-85 + OSI-027 (first compound 0.8 µM); 0.92 with XMD8-85 + OSI-027 (first compound 2.53 µM); 0.756 with XMD8-85 + OSI-027 (first compound 8 µM); 0.106 with XMD8-85 + Tozasertib (first compound 0.08 µM); 0.0979 in the assay with XMD8-85 + Tozasertib (first compound 0.253 µM); 0.119 with XMD8-85 + Tozasertib (first compound 0.8 µM). The relative viability in the assay with XMD8-85 + Tozasertib (first compound 2.53 µM) amounted to 0.11; in the assay with XMD8-85 + Tozasertib (first compound 8 µM) it was 0.0877; in the assay with XMD8-85 + Pictilisib (first compound 0.08 µM), 0.353; with XMD8-85 + Pictilisib (first compound 0.253 µM), 0.366; with XMD8-85 + Pictilisib (first compound 0.8 µM) it was 0.359; with XMD8-85 + Pictilisib (first compound 2.53 µM) it was 0.362. Further, the relative viability with XMD8-85 + Pictilisib (first compound 8 µM) was 0.304.

For the cell line NCI-H650, the relative viability in the assay with XMD8-85 + Linsitinib (first compound 0.08 µM) amounted to 0.925; with XMD8-85 + Linsitinib (first compound 0.253 µM), 0.74; in the assay with XMD8-85 + Linsitinib (first compound 0.8 µM), 0.811; in the assay with XMD8-85 + Linsitinib (first compound 2.53 µM) it was 0.826; with XMD8-85 + Linsitinib (first compound 8 µM), 0.371; with XMD8-85 + OSI-027 (first compound 0.08 µM) it was 0.564. The relative viability with XMD8-85 + OSI-027 (first compound 0.253 µM) was 0.527; in the assay with XMD8-85 + OSI-027 (first compound 0.8 µM) it was 0.467; with XMD8-85 + OSI-027 (first compound 2.53 µM) it was 0.492; with XMD8-85 + OSI-027 (first compound 8 µM), 0.338; with XMD8-85 + Tozasertib (first compound 0.08 µM), 0.738; in the assay with XMD8-85 + Tozasertib (first compound 0.253 µM), 0.713. The relative viability with XMD8-85 + Tozasertib (first compound 0.8 µM) is 0.68; with XMD8-85 + Tozasertib (first compound 2.53 µM), 0.608; with XMD8-85 + Tozasertib (first compound 8 µM) it was 0.338; with XMD8-85 + Pictilisib (first compound 0.253 µM), 0.892; with XMD8-85 + Pictilisib (first compound 0.8 µM), 0.846; with XMD8-85 + Pictilisib (first compound 2.53 µM) it was 0.8. The relative viability in the assay with XMD8-85 + Pictilisib (first compound 8 µM) came out at 0.524.

SW 1573: the relative viability in the assay with XMD8-85 + Linsitinib (first compound 0.08 µM) turned out to be 0.873; in the assay with XMD8-85 + Linsitinib (first compound 0.253 µM) it was 0.802; in the assay with XMD8-85 + Linsitinib (first compound 2.53 µM) it was 0.698; with XMD8-85 + Linsitinib (first compound 8 µM) it was 0.655; in the assay with XMD8-85 + OSI-027 (first compound 0.08 µM) it was 0.566; with XMD8-85 + OSI-027 (first compound 0.253 µM), 0.61. The relative viability amounted to 0.669 with XMD8-85 + OSI-027 (first compound 0.8 µM); 0.607 with XMD8-85 + OSI-027 (first compound 2.53 µM); 0.327 with XMD8-85 + OSI-027 (first compound 8 µM); 0.222 with XMD8-85 + Tozasertib (first compound 0.08 µM); 0.197 with XMD8-85 + Tozasertib (first compound 0.253 µM); 0.175 with XMD8-85 + Tozasertib (first compound 0.8 µM). For the same cell line, the relative viability worked out at 0.174 in the assay with XMD8-85 + Tozasertib (first compound 2.53 µM); 0.156 in the assay with XMD8-85 + Tozasertib (first compound 8 µM); 0.574 in the assay with XMD8-85 + Pictilisib (first compound 0.08 µM); 0.523 with XMD8-85 + Pictilisib (first compound 0.253 µM); 0.591 in the assay with XMD8-85 + Pictilisib (first compound 0.8 µM); 0.487 in the assay with XMD8-85 + Pictilisib (first compound 2.53 µM). Also, the relative viability in the assay with XMD8-85 + Pictilisib (first compound 8 µM) was determined as 0.357.

Take NCI-H661: the relative viability with XMD8-85 + Linsitinib (first compound 0.08 µM) was 0.523; with XMD8-85 + Linsitinib (first compound 0.253 µM), 0.518; with XMD8-85 + Linsitinib (first compound 0.8 µM), 0.523; with XMD8-85 + Linsitinib (first compound 2.53 µM) it was 0.579; with XMD8-85 + Linsitinib (first compound 8 µM) it was 0.448; with XMD8-85 + OSI-027 (first compound 0.08 µM) it was 0.636. Also, the relative viability with XMD8-85 + OSI-027 (first compound 0.253 µM) worked out at 0.709; with XMD8-85 + OSI-027 (first compound 0.8 µM) it was 0.775; with XMD8-85 + OSI-027 (first compound 2.53 µM), 0.806; with XMD8-85 + OSI-027 (first compound 8 µM) it was 0.515; with XMD8-85 + Tozasertib (first compound 0.08 µM), 0.383; with XMD8-85 + Tozasertib (first compound 0.253 µM) it was 0.346. The relative viability with XMD8-85 + Tozasertib (first compound 0.8 µM) is 0.366; with XMD8-85 + Tozasertib (first compound 2.53 µM), 0.353; in the assay with XMD8-85 + Tozasertib (first compound 8 µM) it was 0.392; with XMD8-85 + Pictilisib (first compound 0.08 µM), 0.406; with XMD8-85 + Pictilisib (first compound 0.253 µM), 0.419; with XMD8-85 + Pictilisib (first compound 0.8 µM) it was 0.412. Besides, the relative viability in the assay with XMD8-85 + Pictilisib (first compound 2.53 µM) worked out at 0.366; in the assay with XMD8-85 + Pictilisib (first compound 8 µM) it was 0.357.

With UMC-11, the relative viability with XMD8-85 + Linsitinib (first compound 0.08 µM) was found to be 1.01; with XMD8-85 + Linsitinib (first compound 0.253 µM), 0.922; in the assay with XMD8-85 + Linsitinib (first compound 0.8 µM), 1.15; in the assay with XMD8-85 + Linsitinib (first compound 2.53 µM), 0.848; with XMD8-85 + Linsitinib (first compound 8 µM) it was 0.512; in the assay with XMD8-85 + OSI-027 (first compound 0.08 µM), 0.457. Also, the relative viability in the assay with XMD8-85 + OSI-027 (first compound 0.253 µM) turned out to be 0.461; with XMD8-85 + OSI-027 (first compound 0.8 µM), 0.521; in the assay with XMD8-85 + OSI-027 (first compound 2.53 µM), 0.436; with XMD8-85 + OSI-027 (first compound 8 µM), 0.371; in the assay with XMD8-85 + Tozasertib (first compound 0.08 µM) it was 0.251; with XMD8-85 + Tozasertib (first compound 0.253 µM), 0.209. Besides, the relative viability with XMD8-85 + Tozasertib (first compound 0.8 µM) turned out to be 0.233; with XMD8-85 + Tozasertib (first compound 2.53 µM), 0.248; with XMD8-85 + Tozasertib (first compound 8 µM) it was 0.197; with XMD8-85 + Pictilisib (first compound 0.08 µM) it was 0.696; in the assay with XMD8-85 + Pictilisib (first compound 0.253 µM) it was 0.757; in the assay with XMD8-85 + Pictilisib (first compound 0.8 µM) it was 0.922. The relative viability was 0.796 with XMD8-85 + Pictilisib (first compound 2.53 µM) and 0.513 with XMD8-85 + Pictilisib (first compound 8 µM).
